Laboratory results taken from ChEMBL document CHEMBL3045012, “Quinoline-based azetidinone and thiazolidinone analogues as antimicrobial and antituberculosis agents” (2013).
≈ marks a conversion by molar mass, not a printed value.

What was measured:
Format in all cases: functional
Escherichia coli [1] = experiment: Antimicrobial activity against Escherichia coli MTCC 739 assessed as diameter of growth inhibition zone after 24 hr by paper disk diffusion technique
Bacillus subtilis [2] = experiment: Antimicrobial activity against Bacillus subtilis MTCC 430 assessed as diameter of growth inhibition zone after 24 hr by paper disk diffusion technique
Candida albicans [3] = experiment: Antimicrobial activity against Candida albicans MTCC 183 assessed as diameter of growth inhibition zone after 24 hr by paper disk diffusion technique
Staphylococcus aureus [4] = experiment: Antimicrobial activity against Staphylococcus aureus MTCC 96 assessed as growth inhibition after 24 hr by agar streak dilution technique; conditions: MTCC 96, 24 h
Bacillus subtilis [5] = experiment: Antimicrobial activity against Bacillus subtilis MTCC 430 assessed as growth inhibition after 24 hr by agar streak dilution technique; conditions: MTCC 430, 24 h
Pseudomonas aeruginosa [6] = experiment: Antimicrobial activity against Pseudomonas aeruginosa MTCC 741 assessed as growth inhibition after 24 hr by agar streak dilution technique; conditions: MTCC 741, 24 h
Pseudomonas aeruginosa [7] = experiment: Antimicrobial activity against Pseudomonas aeruginosa MTCC 741 assessed as diameter of growth inhibition zone after 24 hr by paper disk diffusion technique
Escherichia coli [8] = experiment: Antimicrobial activity against Escherichia coli MTCC 739 assessed as growth inhibition after 24 hr by agar streak dilution technique; conditions: MTCC 739, 24 h
Aspergillus niger [9] = experiment: Antimicrobial activity against Aspergillus niger MTCC 282 assessed as growth inhibition after 48 hr by agar streak dilution technique; conditions: MTCC 282, 48 h
[10] = test system: Mycobacterium tuberculosis; experiment: Antituberculosis activity against Mycobacterium tuberculosis H37Rv assessed as growth inhibition after 12 to 28 days by L-J MIC method; conditions: for MIC: Mycobacterium tuberculosis, H37Rv
Staphylococcus aureus [11] = experiment: Antimicrobial activity against Staphylococcus aureus MTCC 96 assessed as diameter of growth inhibition zone after 24 hr by paper disk diffusion technique
Candida albicans [12] = experiment: Antimicrobial activity against Candida albicans MTCC 183 assessed as growth inhibition after 48 hr by agar streak dilution technique; conditions: MTCC 183, 48 h
Aspergillus niger [13] = experiment: Antimicrobial activity against Aspergillus niger MTCC 282 assessed as diameter of growth inhibition zone after 24 hr by paper disk diffusion technique

| SMILES | diameter of the inhibition zone (DIZ) (Escherichia coli [1]) [mm] | diameter of the inhibition zone (DIZ) (Bacillus subtilis [2]) [mm] | diameter of the inhibition zone (DIZ) (Candida albicans [3]) [mm] | MIC (Staphylococcus aureus [4]) [µg/mL] | MIC (Bacillus subtilis [5]) [µg/mL] | MIC (Pseudomonas aeruginosa [6]) [µg/mL] | diameter of the inhibition zone (DIZ) (Pseudomonas aeruginosa [7]) [mm] | MIC (Escherichia coli [8]) [µg/mL] | MIC (Aspergillus niger [9]) [µg/mL] | growth inhibition (GI) [10] [%] | MIC [10] [µg/mL] | diameter of the inhibition zone (DIZ) (Staphylococcus aureus [11]) [mm] | MIC (Candida albicans [12]) [µg/mL] | diameter of the inhibition zone (DIZ) (Aspergillus niger [13]) [mm] |
| --- | --- | --- | --- | --- | --- | --- | --- | --- | --- | --- | --- | --- | --- | --- |
| O=C1CSC(c2cc3ccccc3nc2Cl)N1c1ccccc1 (centres undefined) | <10 | <10 | <10 | 100 (≈ 293 µM) | 100 (≈ 293 µM) | 100 (≈ 293 µM) | 13 | 100 (≈ 293 µM) | 100 (≈ 293 µM) | 92 | 250 (≈ 733 µM) | 17 | 100 (≈ 293 µM) | 14 |
| Cc1ccccc1N1C(=O)CSC1c1cc2ccccc2nc1Cl (centres undefined) | <10 | <10 | <10 | 100 (≈ 282 µM) | 100 (≈ 282 µM) | 100 (≈ 282 µM) | <10 | 100 (≈ 282 µM) | 100 (≈ 282 µM) | 90 | 500 (≈ 1410 µM) | <10 | 100 (≈ 282 µM) | <10 |
| Cc1cccc(N2C(=O)CSC2c2cc3ccccc3nc2Cl)c1 (centres undefined) | <10 | 17 | 13 | 100 (≈ 282 µM) | 100 (≈ 282 µM) | 100 (≈ 282 µM) | 16 | 100 (≈ 282 µM) | 100 (≈ 282 µM) | 90 | 500 (≈ 1410 µM) | 18 | 100 (≈ 282 µM) | 19 |
| Cc1ccc(N2C(=O)CSC2c2cc3ccccc3nc2Cl)cc1 (centres undefined) | 17 | 19 | 17 | 100 (≈ 282 µM) | 100 (≈ 282 µM) | 62.5 (≈ 176 µM) | 20 | 100 (≈ 282 µM) | 100 (≈ 282 µM) | 94 | 250 (≈ 704 µM) | 19 | 100 (≈ 282 µM) | <10 |
| O=C1CSC(c2cc3ccccc3nc2Cl)N1c1ccccc1[N+](=O)[O-] (centres undefined) | 24 | 21 | 20 | 25 (≈ 64.8 µM) | 62.5 (≈ 162 µM) | 12.5 (≈ 32.4 µM) | 25 | 12.5 (≈ 32.4 µM) | 50 (≈ 130 µM) | 93 | 200 (≈ 518 µM) | 25 | 100 (≈ 259 µM) | 22 |
| O=C1CSC(c2cc3ccccc3nc2Cl)N1c1cccc([N+](=O)[O-])c1 (centres undefined) | 22 | 22 | 23 | 12.5 (≈ 32.4 µM) | 50 (≈ 130 µM) | 12.5 (≈ 32.4 µM) | 24 | 62.5 (≈ 162 µM) | 25 (≈ 64.8 µM) | 94 | 100 (≈ 259 µM) | 26 | 25 (≈ 64.8 µM) | 24 |
| O=C1CSC(c2cc3ccccc3nc2Cl)N1c1ccc([N+](=O)[O-])cc1 (centres undefined) | 21 | 23 | 24 | 12.5 (≈ 32.4 µM) | 50 (≈ 130 µM) | 12.5 (≈ 32.4 µM) | 25 | 62.5 (≈ 162 µM) | 12.5 (≈ 32.4 µM) | 97 | 50 (≈ 130 µM) | 26 | 25 (≈ 64.8 µM) | 24 |
| O=C1CSC(c2cc3ccccc3nc2Cl)N1c1ccccc1Cl (centres undefined) | 21 | 23 | 21 | 50 (≈ 133 µM) | 12.5 (≈ 33.3 µM) | 25 (≈ 66.6 µM) | 21 | 62.5 (≈ 167 µM) | 62.5 (≈ 167 µM) | 95 | 100 (≈ 266 µM) | 21 | 62.5 (≈ 167 µM) | 20 |
| O=C1CSC(c2cc3ccccc3nc2Cl)N1c1cccc(Cl)c1 (centres undefined) | 22 | 24 | 20 | 25 (≈ 66.6 µM) | 12.5 (≈ 33.3 µM) | 25 (≈ 66.6 µM) | 23 | 62.5 (≈ 167 µM) | 50 (≈ 133 µM) | 97 | 50 (≈ 133 µM) | 26 | 100 (≈ 266 µM) | 24 |
| O=C1CSC(c2cc3ccccc3nc2Cl)N1c1ccc(Cl)cc1 (centres undefined) | 23 | 24 | 22 | 50 (≈ 133 µM) | 12.5 (≈ 33.3 µM) | 25 (≈ 66.6 µM) | 24 | 50 (≈ 133 µM) | 12.5 (≈ 33.3 µM) | 96 | 62.5 (≈ 167 µM) | 23 | 50 (≈ 133 µM) | 25 |
| O=C1CSC(c2cc3ccccc3nc2Cl)N1c1ccc(F)cc1 (centres undefined) | 23 | 23 | 24 | 25 (≈ 69.7 µM) | 12.5 (≈ 34.8 µM) | 25 (≈ 69.7 µM) | 24 | 25 (≈ 69.7 µM) | 12.5 (≈ 34.8 µM) | 99 | 12.5 (≈ 34.8 µM) | 24 | 25 (≈ 69.7 µM) | 25 |
| Cc1cnc(N2C(=O)CSC2c2cc3ccccc3nc2Cl)s1 (centres undefined) | 24 | 23 | 23 | 50 (≈ 138 µM) | 50 (≈ 138 µM) | 50 (≈ 138 µM) | 22 | 25 (≈ 69.1 µM) | 62.5 (≈ 173 µM) | 98 | 25 (≈ 69.1 µM) | 24 | 100 (≈ 276 µM) | 24 |
| O=C(O)c1cn(C2CC2)c2cc(N3CCNCC3)c(F)cc2c1=O [CIPROFLOXACIN] | 32 | 31 | – | ≤ 1 | ≤ 1 | ≤ 1 | 33 | ≤ 1 | – | – | – | 30 | – | – |
| CC[C@@H](CO)NCCN[C@@H](CC)CO [ETHAMBUTOL] | – | – | – | – | – | – | – | – | – | 99 | 3.12 (≈ 15.3 µM) | – | – | – |
| CC(=O)N1CCN(c2ccc(OCC3COC(Cn4ccnc4)(c4ccc(Cl)cc4Cl)O3)cc2)CC1 (centres undefined) [KETOCONAZOLE] | – | – | 33 | – | – | – | – | – | ≤ 3 | – | – | – | ≤ 1 | 30 |
| NC(=O)c1cnccn1 [PYRAZINAMIDE] | – | – | – | – | – | – | – | – | – | 99 | 6.25 (≈ 50.8 µM) | – | – | – |
